Test results taken from article PMC11215077, “Antiviral activity of temporin-1CEb analogues against gingival infection with herpes simplex virus type 1” (Frontiers in Oral Health, 2024).
≈ marks a conversion by molar mass, not a printed value. Square brackets hold non-standard residues; d marks the D form. Peptide text beside a SMILES is read from it. AEEA = NCCOCCOCC(=O)O

Assays:
[1] = test system: HSV-1; test: Virus inhibition (replication) assay in Vero E6 and TIGKs cells, qPCR, titration, gB Western blot; format: cell-based, herpes simplex virus type 1; settings: 48 h p.i.
Protocol: HSV-1 stocks were generated by infecting Vero E6 cells. Cells were lysed at 48 h p.i. by two freeze-thaw cycles. The virus containing fluid was aliquoted and stored at −80°C. A control Vero E6 cell lysate from mock-infected cells was prepared in the same manner as the virus stock. Virus yield was assessed by virus titration on fully confluent Vero E6 cells in 96-well plates, according to the method of Reed & Muench ([32]). Plates were incubated at 37°C for 48 h and the occurrence of a cytopathic effect was scored using an inverted microscope, and TCID50 (50% tissue culture infection dose) was calculated.
Vero E6 or TIGKs cells were seeded in 12-well plates and cultured for 48 h. […] After 30 min of incubation at 37°C, cells were infected with HSV-1 at TCID50 400 /ml or treated with mock. After 2 h of infection at 37°C, unbound viral particles were removed by washing with PBS, and culture media supplemented with peptide conjugates were applied. Following 48 h of incubation, media were collected, and the quantity of HSV-1 DNA copies was assessed using titration and qPCR.
(§1) Viral DNA was isolated from the conditioned media or the apical washes of inserts (OTG model) using Viral DNA/RNA Isolation Kit (A&A Biotechnology). The virus yield assessed by quantitative real-time PCR (qPCR). The reaction was carried out in a CFX96 Touch Real-Time PCR Detection System (Bio-Rad), in a 10 μl reaction mixture consisting of TaqMan^TM Fast Advanced Master Mix, TaqMan^TM Microbe Detection assay against HSV-1 (Vi04230116_s1) and 1 μl of viral DNA. The temperature profile was 10 s at 95°C, followed by 40 cycles of 3 s at 95°C and 20 s at 60°C. DNA quantification standards were prepared. In summary, a fragment of viral DNA was amplified using the primers listed above and cloned into the pTZ57R/T plasmid using the InsTAclone PCR cloning kit. The plasmid was propagated in E. coli, purified with the GeneJet Plasmid Miniprep Kit, and digested with the EcoR1 restriction enzyme. The number of copies per mL was estimated after the concentration of linearized DNA was assessed spectrophotometrically.
Protein extracts were prepared using lysis buffer (0.25% Na-deoxycholate, 0.5% Nonidet P-40, 0.05% SDS, protease inhibitor mixture, 2.5 mM EDTA in PBS), and the protein concentration was assessed using Pierce BCA (Thermo Fisher) protein assay kit. Equal amounts of cell extracts were separated on 10% SDS-PAGE gel and electrotransferred onto polyvinylidene difluoride membranes for gB and β-actin in transfer buffer (25 mM Tris, 0.2 M glycine, and 20% ethanol) for 90 min at 100 V. Nonspecific binding sites were blocked for 90 min in 5% skimmed milk prepared in TBST buffer (20 mM Tris, pH 7.5, 0.5 M NaCl, 0.05% Tween 20). Membranes were further incubated overnight at 4°C with primary antibodies: mouse anti-HSV-1 + HSV-2 gB (1:5000; abcam) and mouse anti-β-actin (1:4,000; BD Biosciences). The following day, membranes were washed three times with TBST buffer and incubated with HRP-conjugated secondary antibodies for 60 min at 37°C: goat anti-mouse IgG (1:20,000; β-actin; BD Bioscience) or sheep anti-mouse IgG (1:50,000; gB; Sigma Aldrich). Next, blots were washed five times for 5 min in TBST buffer, developed using Luminata Cresecendo Substarte (Merck) and exposed to AGFA medical x-ray film. Densitometry analysis was performed using ImageJ 1.52q software.

[2] = test system: HSV-1; test: Virion integrity assay; format: cell-based, herpes simplex virus type 1; settings: virions pre-treated 1 h at RT with 15 μg/ml, then TIGKs infected; qPCR up to 48 h p.i.; compared to Triton X-100
Protocol: HSV-1 samples were incubated with DAL-PEG-LK6 and CPP1-PEG-LK6 (15 μg/ml) for 1 h at room temperature on a shaker. Additionally, Triton X-100 was used as a positive control. Next, the mixtures were diluted to decrease tested molecules concentrations (0.65 ng/ml) and were used to infect TIGKs monolayers. After 48 h of incubation, supernatants were collected, and the quantity of HSV-1 DNA copies was determined using qPCR.
as §1, with “The plasmid was propagated in E. coli, purified with the GeneJet Plasmid Miniprep Kit, and digested with the EcoR1 restriction enzyme.” left out

[3] = Confocal colocalization of CFS-labelled conjugate with HS on TIGKs cells; format: cell-based; settings: CFS-labelled conjugate 15 μg/ml, 30 min at 4°C, average ± SEM
Protocol: To examine the colocalization of HS on the cell surface with tested peptide conjugate we treated TIGKs cells with CFS stained CPP1-PEG-LK6 (15 μg/ml) for 30 min at 4°C. Then cells were washed with cold PBS and fixed with 3.7% formaldehyde for 30 min. Afterwards, TIGKs cells were stained with primary antibodies (1:100; rat anti-HS, Abcam) for 2 h at room temperature. The cells were then incubated with secondary antibodies (1:1,000; goat anti-rat conjugated with Alexa Fluor 568, Cell Signaling) and with Alexa Fluor 633 Phalloidin. Next, the coverslips were placed on glass slide with ProLong Antifade Mounting Medium with DAPI and visualized using a confocal laser scanning microscope (LSM 880; Zeiss).

[4] = Analytical RP-HPLC retention time; settings: Phenomenex Jupiter 4 μ Proteo 90 Å, 250 × 4.60 mm, listed as basic physicochemical characteristic
Protocol: The synthesized compounds were then purified by reverse-phase high-performance liquid chromatography (RP-HPLC) on a Waters system (Phenomenex Jupiter 4 μ Proteo 90 Å column, 250 × 10 mm). A linear gradient from 10% to 80% of solvent B over 60 min (Solvent A: 0.1% TFA in water; Solvent B: 80% acetonitrile in Solvent A) was employed with a flow rate 5 ml/min. The homogeneity of the final peptide fractions was analyzed using a Shimadzu HPLC System (Shimadzu Europe GmbH, Duisburg, Germany) equipped with a Phenomenex Jupiter 4 μ Proteo 90 Å column, 250 × 4.60 mm. The mass spectra of the synthesized peptides were recorded using a Biflex III MALDI-TOF mass spectrometry (Bruker, Mannheim, Germany) with α-cyano-4-hydroxy-cinnamic acid (CCA) or 2,5-dihydroxybenzoic acid (DHB) used as the matrix.

[5] = test system: HSV-1; settings: concentration reducing viral replication by 50%; TIGKs cells pre-treated, infected and cultivated with compound; qPCR; mean of two independent experiments
Protocol: Data were expressed as means ± SD. Statistical significance was determined using unpaired t-test, one-way ANOVA, and/or two-way ANOVA for direct comparisons between single groups. A p-value <0.05 was considered statistically significant. We used GrapPad Prism 10 software for the analyses. […]

[6] = in vitro
Protocol: The viability of Vero E6 and TIGKs cells was examined by the XTT Cell Viability Assay kit (Biological Industries, USA). Briefly, cells were treated with indicated concentrations of the peptide conjugates for 48 h at 37°C. Next, the fresh medium was added to the cells and 50 μl of the activated XTT reagent [2,3-bis(2-methoxy-4-nitro-5-sulphenyl)-2H-tetrazolium-5-carboxanilide] was added and further incubated for 2 h at 37°C. Absorbance was measured at a wavelength of 480 nm using FlexStation 3 microplate reader (Molecular Device, Wokingham, UK). The results were expressed normalized against a control of untreated cells (100% viability). To assess the effect of peptide conjugate on the integrity of the plasma membrane, the LDH release assay was performed using the CytoTox96 nonradioactive cytotoxicity assay kit (Promega, Madison, WI, USA) according to the manufacturer's instructions. Cytotoxicity was calculated with the formula: % cytotoxicity = 100 × (experimental LDH release/ maximum LDH release), where maximum LDH release is after lysis solution addition (Triton X-100). Relative amounts of LDH release were measured (absorbance at 490 nm) using FlexStation 3 microplate reader (Molecular Device, Wokingham, UK). […]
Data were expressed as means ± SD. Statistical significance was determined using unpaired t-test, one-way ANOVA, and/or two-way ANOVA for direct comparisons between single groups. […]

CC[C@H](C)[C@H](NC(=O)COCCOCCNC(=O)[C@@H](NC(=O)[C@H](CC(C)C)NC(=O)[C@H](Cc1ccc(O)cc1)NC(=O)[C@@H](NC(=O)[C@H](Cc1ccccc1)NC(=O)[C@@H]1CCCN1)C(C)C)[C@@H](C)CC)C(=O)N[C@@H](CCCCN)C(=O)N[C@@H](CCCCN)C(=O)N[C@H](C(=O)N[C@@H](CC(C)C)C(=O)N[C@@H](CO)C(=O)N[C@@H](CCCCN)C(=O)N[C@H](C(=O)N[C@@H](CCCCN)C(=O)N[C@@H](CCCCN)C(=O)N[C@@H](CC(C)C)C(=O)N[C@@H](CC(C)C)C(=O)N[C@@H](CCCCN)C(N)=O)[C@@H](C)CC)[C@@H](C)CC [CPP1-PEG-LK6] (H-PFVYLI[AEEA]IKKILSKIKKLLK-NH2)
expression level of gB (Western blot) ([1]; 15 μg/ml before, during and after infection, normalized to β-actin, cell line not stated): significantly suppressed the expression level of gB
reduction in viral yield in the qPCR test ([1]; Figure 1C, Vero E6 (DAL-PEG-LK6 and CPP1-PEG-LK6 25 μg/ml; CPP2-PEG-LK6 10 μg/ml) and TIGKs cells (15 μg/ml)): 3 log
reduction of virus replication in titration assay ([1]; Figure 1D, both cell models (Vero E6, TIGKs), normalized to untreated control): over 99%
effect on HSV-1 virion integrity [2]: no inhibitory effect
colocalization with HS, Manders overlap coefficient [3]: 0.93 ± 0.01
colocalization with HS, Pearson's correlation [3]: 0.82 ± 0.02
Rt [4]: 25.247
IC50 [5]: 0.942 µg/mL (≈ 0.388 µM)
CC50 at 48 h [6]: 23.4 µg/mL (≈ 9.63 µM)
